Ends that are not written are not given here.
T1: human MIF (hMIF) (Homo sapiens, UniProt P14174)
T1 sequence (P14174 2-115 limits assumed): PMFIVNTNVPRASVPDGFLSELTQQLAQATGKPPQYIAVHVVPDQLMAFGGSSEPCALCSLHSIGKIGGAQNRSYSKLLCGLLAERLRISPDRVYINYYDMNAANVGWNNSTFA

B1: DRα1-MOG-35-55: second generation derivative of RTL1000, partial MHC molecule DRα1 construct that binds CD74 (protein)
chain: MEVGWYRSPFSRVVHLYRNGKGGGGSLVPRGSGGGGIKEEHVIIQAEFYLNPDQSGEFMFDFDGDEIFHVDMAKKETVWRLEEFGRFASFEAQGALANIAVDKANLEIMTKRSNYTPITN

Key:
DRα1mMOG-35-55 = assay: Competition ELISA: peptides competing with rmCD74 for binding to plate-coated DRα1mMOG-35-55; conditions: for competition with CD74 for binding to DRα1-mMOG-35-55 (in words): FIG. 3A, FIGS. 4A/4B; for IC50: FIGS. 4A and 4B, peptides combined or alone, read-out: IC50 for blocking rmCD74 binding to DRα1mMOG-35-55; for LogIC50 vs DRα1mMOG-35-55 / IC50 vs DRα1mMOG-35-55: Table 1, from FIG. 3A, one-binding site fit; for IC50 vs DRα1mMOG-35-55: rmCD74 50 nM
Description: (§1) Competition of peptides with rmCD74 for binding to RTL1000 or DRα1mMOG35-55 was also tested. Briefly, 50 μl of 1 μg/ml either RTL1000 or DRα1mMOG-35-55 were coated onto ELISA plates at 25° C. for 2 hours. Each well was washed 4 times with 300 μl of PBS/0.0125% Tween 20 (PBS/T20) to remove excess of protein and then blocked with 5% BSA/PBS at pH 7.4 (BSA/PBS) for 2 hours at the same temperature. Serial 1:2 dilutions of α-helix 1 or α-helix 2 (starting with a concentration of 66 μM, 50 μg/ml each) were prepared in rmCD74 (in BSA/PBS, 50 nM, 0.5 ug/ml) and added to the plate. Competition for the binding site was allowed for 3 hours at 25° C. and then unbound complexes were washed 4 times with PBS/T20. Remaining rmCD74 bound to RTL1000 or DRα1mMOG-35-55 was detected by the PIN.1/anti-mouse IgG1-HRP at 1 ul/ml of both in BSA/PBS for 1.5 hours at 25° C. and visualized by adding TMB substrate (50 μl, according to the manufacturer's instructions). Color development was stopped with 0.1N HCl and the plate was read at 450 nm in an ELISA plate reader. Data were normalized and fitted to a one-binding site model and competitor concentration was plotted against Absorbance at 450 nm to determine the IC50 of each peptide competitor. All data were analyzed using Prism software (GraphPad).

human MIF (hMIF) = target: T1, human MIF (hMIF); assay: Competition ELISA: peptides blocking rmCD74 binding to plate-coated hMIF; conditions: FIG. 2A/2B
Description: The ability of α-helix 1 and α-helix 2 peptides to compete with MIF for binding to CD74 was tested. Briefly, 50 μl of hMIF at a concentration of 0.5 μg/ml in PBS was coated onto ELISA plates for 2 hours at RT, washed 4 times with […] of PBS/0.0125% T20, blocked with 300 μl of 5% BSA in PBS, pH 7.4 for 2 hours at room temperature, and then a mixture of rmCD74 (constant concentration of 0.5 μg/ml) and competitor (SEQ ID NO: 2, SEQ ID NO: 4) at an initial concentration of 66 μM (33 μM each, mixed or 66 μM each, separately) in 5% BSA/PBS was added to the wells for 3 hours at room temperature to allow binding. Wells were thoroughly washed with PBS/T20 and the mAb PIN.1/anti-mIgG1-HRP (at 0.5 μg/ml in 5% BSA/PBS each) was used to detect the remaining rmCD74 bound to MIF. This mAb recognizes an epitope located at the N-terminus of the protein. Color was developed after adding 50 μl of TMB for 5 minutes and the reaction was stopped with 50 μl of 0.1N HCl. Data was first normalized and then analyzed using GraphPad Prism software. IC50 were calculated by fitting the curve to a competition model involving a two-binding site equation.

RTL1000 = assay: Competition ELISA: peptides competing with rmCD74 for binding to plate-coated RTL1000; conditions: for competition with CD74 for binding to RTL1000 (in words): FIG. 3A; for LogIC50 vs RTL 1000 / IC50 vs RTL 1000: Table 1, from FIG. 3A, one-binding site fit; for IC50 vs RTL 1000: rmCD74 50 nM, in µM
Description: as §1

[1] = tested on: experimental autoimmune encephalomyelitis (EAE); conditions: mice with EAE, treated after onset of clinical signs; cited from earlier work

Molecule	competition with CD74 for binding to DRα1-mMOG-35-55 (in words) (DRα1mMOG-35-55)	competition with CD74 for binding to DRα1-mMOG-35-55 (in words) (DRα1mMOG-35-55; listed as SEQ ID NO: 4)	IC50 (DRα1mMOG-35-55) [µM]	LogIC50 vs DRα1mMOG-35-55 (DRα1mMOG-35-55)	IC50 vs DRα1mMOG-35-55 (DRα1mMOG-35-55)	blocking of rmCD74 binding to human MIF (in words) (human MIF (hMIF))	competition with CD74 for binding to RTL1000 (in words) (RTL1000)	LogIC50 vs RTL 1000 (RTL1000)	IC50 vs RTL 1000 (RTL1000)	blocking of rmCD74 binding to human MIF (in words) (human MIF (hMIF); listed as SEQ ID NO: 2)	effect on EAE (in words) [1]
KGSFPENLRHLKNTMET [α-helix 2]	did not have a significant effect	competes to a lesser extent	24.5	2.222	166.6	to a lesser extent	competes to a lesser extent	1.535	34.27	–	–
TEDHVMHLLQNAD [α-helix 1]	able to outcompete	–	35	1.002	10.05	blocks CD74 binding to hMIF	able to outcompete	0.8309	6.775	able to block	–
B1	–	–	–	–	–	–	–	–	–	–	reduced disease severity
